Like-named read-outs stand apart in the source and are kept apart here. Starred links: 1 amine or outer side, 2 acyl side, 3 side chain; linkers in the order of their positions; H or OH if unused. Positions of bridges follow the written chain, without caps; N, C: chain ends. Non-standard residues stand in square brackets, D forms with d. Residues, ends and D or L forms follow the SMILES beside them. Adda = CO[C@@H](Cc1ccccc1)[C@@H](C)/C=C(C)/C=C/[C@H](N[*:1])[C@H](C)C(=O)[*:2]; dAsp(3S-Me) = C[C@H](C(=O)[*:3])[C@@H](N[*:1])C(=O)[*:2]; d(γGlu) = O=C(O)[C@@H](CCC(=O)[*:2])N[*:1]; NMeDha = C=C(NC)C(=O)O

The values that follow come from patent US20050014682A1 (priority 2003, published 2005).

The test system of one assay is Akt. The assay is described as follows: Cell-free in vitro assay (3T3-L1 adipocyte PM/CYT/LDM fractions), Akt phosphorylation by phospho-Akt immunoblot. It is filed as biochemical. As to conditions: for ability of phosphatidylinositol lipids to stimulate Thr308 and Ser473 phosphorylation of Akt: data not shown. In general terms: In western blotting, separated proteins are transferred to a membrane and probed.

The subject of a further assay is PDK2. Nature of the assay: PDK2 activity in in vitro reactions at different chloride concentrations. It is filed as biochemical.
The mark [1] stands for this setting: 10 μM PIP3 added to CYT alone, non-insulin treated cells, 15 min at 37° C.
Setting [2] is: 10 μM PIP3 added to CYT and LDM, 15 min at 37° C.

Turning to `O[C@@H](CS)[C@@H](O)CS` [DTT], the “signal for both Akt phosphorylation sites in reactions containing PM(+ins)” value with Akt (15 min at 37° C.) is given as “appeared to inhibit the phospho-Akt signal in most cases”.
Turning to `C=C1C(=O)N[C@H](C)C(=O)N[C@@H](CC(C)C)C(=O)N[C@@H](C(=O)O)[C@H](C)C(=O)N[C@@H](CCCNC(=N)N)C(=O)N[C@@H](/C=C/C(C)=C/[C@H](C)[C@H](Cc2ccccc2)OC)[C@H](C)C(=O)N[C@@H](C(=O)O)CCC(=O)N1C` [Microcystin, microcystin-LR] (R[Adda][d(γGlu)][NMeDha][dA]L[dAsp(3S-Me)]-OH; lactam N-7), in the assay on Akt, the “control (basal) phospho-Akt signal in reactions containing PM(−ins)” value is on record as “elevated the basal signal only for the Ser473 site” and the “signal for both Akt phosphorylation sites in reactions containing PM(+ins)” value is listed as “increased the insulin-stimulated signal”.
In the case of “phosphatidylinositol(3,4)P2 [PI (3,4)P2]”, the “ability of phosphatidylinositol lipids to stimulate Thr308 and Ser473 phosphorylation of Akt” value in the assay with Akt was “could stimulate”.
Consider phosphatidylinositol(3,4,5)P3 [PIP3], for which, in the assay with Akt (setting [1]), the “Ser473 phosphorylation of Akt” value is recorded as “occurred only marginally” and the “Thr308 phosphorylation of Akt” value was “efficient phosphorylation”. In the assay on Akt (setting [2]), the Ser473 signal entry is “robust” and the “Thr308 signal relative to reaction containing CYT alone” value is “not further enhanced”. In addition, the “ability of phosphatidylinositol lipids to stimulate Thr308 and Ser473 phosphorylation of Akt” value in the assay with Akt was “could stimulate”.
As to `Cl` [chloride], the “PIP3-induced Ser473 phosphorylation” value with Akt is on record as “completely inhibited”. The “insulin-stimulated phosphorylation of both Thr308 and Ser473” value with Akt (145 mM chloride (140 mM KCl/5 mM NaCl or 145 mM NaCl), PM and CYT) was “almost completely suppressed”. Also, the “PIP3-stimulated Thr308 phosphorylation” value with Akt (high chloride (145 mM), 10 μM PIP3, PM(−ins) and CYT) is “severely inhibited”. The “chloride concentration that completely inhibits PDK2 activity” value with PDK2 is reported as over 100 mM.
